From patent US12298319B2, “Method for measuring alpha value of muscarinic M1 receptor positive allosteric modulators” (Takeda Pharmaceutical Company Limited, priority 2017, dated 2025)

Tests used:
[1] = test system: IP1 production in the hippocampus; assay: In vivo IP1 assay, hippocampus of wild-type and M1R KO mice; set-up: species or system mouse
Description: Hippocampus was isolated from the brain.

[2] = test system: scopolamine-induced cognitive deficits in rats; assay: Novel object recognition task (NORT), scopolamine-induced memory deficits; assay type: in vivo, rat; settings: for minimal efficacy dose in rats (cognitive improvement): NORT, p.o.; for minimal efficacy dose in rats (cognitive improvement) / NDI: scopolamine-treated rats
Description: On the day before testing, Long Evans rats were allowed to habituate to the behavioral test room environment for over 1 h, and then they were allowed to habituate to the empty test box (a gray-colored polyvinyl chloride box (40×40×50 cm)) for 10 min individually. Testing was comprised of two 3-min trials called the acquisition and the retention trials. These trials were separated by a given inter-trial interval (ITI). On the testing day, in the acquisition trial, rats were allowed to explore two identical objects (A1 and A2) for 3 min. In the retention trial, rats were again allowed to explore a familiar object (A3) and a novel object (B) for 3 min. The object exploration was defined as rats' licking, sniffing or touching the object with limbs while sniffing. Leaning against the object to look upward, standing or sitting on the object was excluded. The exploration time of each object (A1, A2, A3 and B) in each trial was measured manually. Novel discrimination index (NDI) was calculated using the following equation: novel object interaction/total interaction×100(%).
The acquisition and the retention trials were separated by 4 h ITI. […] Scopolamine (0.1 mg/kg) was administered subcutaneously 30 min prior to the acquisition trial.
(§1) The acquisition and the retention trials were separated by 4 h ITI.
as §1

human M1R = target: T1, human M1R (Homo sapiens, UniProt P11229); assay: Ca2+ flux assay in CHO-K1 cells expressing human M1 receptors (EC20 ACh); assay type: cell-based; set-up: expressed in transfected cells; settings: for EC50: potentiating EC20 ACh, read-out: IP value for human M1R
T1 sequence (P11229 1-460): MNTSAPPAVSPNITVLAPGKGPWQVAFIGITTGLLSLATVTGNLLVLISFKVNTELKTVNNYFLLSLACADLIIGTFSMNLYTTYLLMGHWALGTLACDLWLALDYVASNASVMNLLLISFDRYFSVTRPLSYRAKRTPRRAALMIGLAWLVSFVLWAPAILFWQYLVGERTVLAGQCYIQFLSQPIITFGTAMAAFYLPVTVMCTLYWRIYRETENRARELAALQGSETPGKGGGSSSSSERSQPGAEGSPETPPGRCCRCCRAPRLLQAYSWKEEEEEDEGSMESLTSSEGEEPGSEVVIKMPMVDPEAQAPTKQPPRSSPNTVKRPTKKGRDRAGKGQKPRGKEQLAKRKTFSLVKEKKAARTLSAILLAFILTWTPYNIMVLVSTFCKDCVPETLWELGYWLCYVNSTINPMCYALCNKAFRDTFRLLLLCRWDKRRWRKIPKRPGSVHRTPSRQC
Description: CHO-K1 cells expressing human M1 receptors were plated on a 96-well black clear bottom plate (Corning, New York, NY) at 30,000 cells/well, and cultured at 37° C. and 5% CO2 for 1 day. The medium was removed and the cells were incubated with calcium dye buffer (HBSS (Life Technologies, Carlsbad, CA), 20 mM HEPES (Life Technologies), 0.1% fatty acid-free BSA (Wako), 0.08% pluronic F127 (Dojindo Laboratories, Kumamoto, Japan), 2.5 μg/mL Fluo-4 (Dojindo Laboratories), 1.25 mM probenecid (Dojindo Laboratories)) for 30 min at 37° C. and 5% CO2. After 30 min incubation at room temperature, the cells were stimulated with various concentrations of test compounds dissolved in assay buffer (HBSS (Life Technologies), 20 mM HEPES (Life Technologies), 0.1% fatty acid-free BSA (Wako)) containing EC20 concentrations (0.8-1 nM) of ACh and Ca^2+ response was measured using CeilLux (PerkinElmer). For determination of positive allosteric modulation activity of M1PAMs, the response to EC20 ACh was set as the 0% response and the response to 10 μM ACh was set as the 100% response. The potency of M1PAMs was shown as the value of inflection point (IP). IP value and 95% confidence intervals were calculated by XLfit of GraphPad Prism 5 Software (GraphPad Software Inc., LaJolla, CA, USA) from the data expressed as % of control.

[3] = test system: scopolamine-induced cognitive deficits in mice; assay: Y-maze task, scopolamine-induced cognitive deficits; assay type: in vivo, mouse; settings: for scopolamine-induced cognitive deficits in Y-maze task: 5-min measurement
Description: The Y-maze apparatus has a three-arm maze with equal angles between all arms and made of black colored acrylic. Each arm consisted of 40 cm length, 4 cm width, and 12 cm walls. The Y-maze was located in a sound-attenuated room and illuminated at 10 lux. Compound B (10 or 30 mg/kg) and Compound A (1, 3 or 10 mg/kg) were pretreated orally at 60 min prior to the testing. After 30 min, memory impairment was induced by administering scopolamine (0.3 or 1 mg/kg, as hydrobromide salt, s.c.). At 30 min after the administration of scopolamine, mice were placed in the Y-maze and then spontaneous alternation performance was assessed visually for 5 to 8 min. Each animal underwent one trial. A mouse was considered to have entered an arm when all four paws were positioned in one third of the arm runway from the center of the Y maze. Alternations were defined as successive entries into each of the three arms on overlapping triplet sets, and alternation rate, expressed as a percentage, referred to the ratio of actual (total alternations) to possible alternations (total arm entries−2)×100.

In the case of `Cn1cc(-c2ccc(Cc3cc4c(=O)n([C@H]5CCCC[C@@H]5O)cnc4c4ccccc34)cn2)cn1` [Compound C, 3-((1S,2S)-2-hydroxycyclohexyl)-6-((6-(1-methyl-1H-pyrazol-4-yl)pyridin-3-yl)methyl)benzo[h]quinazoline-4(3H)-one, reference compound], the “IP1 production in the hippocampus” value ([1]; M1R KO mice, 10 mg/kg p.o.) is reported as “not in M1R KO mice”, the “IP1 production in the hippocampus” value ([1]; wild-type mice, 10 mg/kg p.o.) is reported as “significantly induced IP1 production” and the “scopolamine-induced cognitive deficits in NORT” value ([2]; 0.1 and 0.3 mg/kg p.o., rats, P≤0.025) is reported as “significantly ameliorated scopolamine-induced cognitive deficits”. For the same molecule, the “minimal efficacy dose in rats (cognitive improvement)” value [2] was 0.1 mg/kg, the NDI ([2]; Compound C 0.03 mg/kg p.o. alone, Example 29) was 52.3% and the EC50 (human M1R) was 0.62 nM.

For `Cn1cc(-c2ccc(CN3Cc4cccc(Oc5c(F)cccc5C#N)c4C3=O)cc2)cn1` [Compound B, 3-fluoro-2-((2-(4-(1-methyl-1H-pyrazol-4-yl)benzyl)-3-oxo-2,3-dihydro-1H-isoindol-4-yl)oxy)benzonitrile], the “scopolamine-induced cognitive deficits in Y-maze task” value ([3]; 30 mg/kg p.o.) was “significantly ameliorated”.

`Cc1c(Cc2ccc(-n3cccn3)cc2)cc2c(c1F)CN([C@H]1COCC[C@@H]1O)C2=O` [Compound D, 4-fluoro-2-[(3S,4S)-4-hydroxytetrahydro-2H-pyran-3-yl]-5-methyl-6-[4-(1H-pyrazol-1-yl)benzyl]-2,3-dihydro-1H-isoindol-1-one] was tested, and the “IP1 production in the hippocampus” value ([1]; M1R KO mice, 3 mg/kg p.o.) was “did not induce IP1 production”, the “IP1 production in the hippocampus” value ([1]; wild-type mice, 3 mg/kg p.o., 3 h, % of vehicle-treated control) was 153.3±9.3% and the “NDI in NORT, scopolamine-induced deficits” value ([2]; 0.3, 1, and 3 mg/kg p.o., rats, P≤0.025) was “significantly increased NDI”. The “minimal efficacy dose in rats (cognitive improvement)” value [2] was 0.3 mg/kg, the NDI ([2]; 0.1 mg/kg p.o. alone, Example 28) was 54.1% and the NDI ([2]; Compound D 0.1 mg/kg p.o. alone, Example 31) was 56.8%. For the same molecule, the EC50 (human M1R) was 2.7 nM and the “M1R selectivity over other human muscarinic receptor subtypes” value (human M1R; vs M2-M5R) was “not less than 3700 fold”.

In the case of `Cn1ccc(-c2ccc(CN3Cc4cccc(O[C@H]5CCCC[C@@H]5O)c4C3=O)cc2)n1` [Compound A, 7-(((1S,2S)-2-hydroxycyclohexyl)oxy)-2-(4-(1-methyl-1H-pyrazol-3-yl)benzyl)isoindolin-1-one], the “scopolamine-induced cognitive deficits in Y-maze task” value ([3]; 10 mg/kg p.o.) is reported as “trends to improve” and the “scopolamine-induced decrease in spontaneous alternation ratio in Y-maze task” value ([3]; 10 mg/kg p.o., 8 min measurement) is reported as “significantly ameliorated”.
